Source: patent US20070060508A1, “Binding molecules” (priority 2002, published 2007)
Ends that are not written are not given here.

Test system: Daudi cells
Assay: Cytotoxicity test: NK effector cells (YT) incubated with tumor target cells (Daudi) plus test peptide, LDH release
Format: cell-based
Conditions: YT and Daudi cells 1:10, 16 h
Method: For the cytotoxicity measurement, NK cells, which specifically kill tumor cells, as effector cells were incubated with tumor cells as target cells in the presence of the test peptides. The cytotoxicity measurement was performed by measuring the release of lactate dehydrogenase (LDH) according to the standard protocol by a cytotoxicity test kit (Promega, Germany) and in a microwell plate reader. As NK cells (E), YT cells (DSMZ, Germany) were used. As target cells (T), Daudi cells (DSMZ, Germany) were used. YT and Daudi cells were seeded in microwell plates at a ratio of 1:10 and incubated in the presence of 0.3, 3, 30:M test peptide for 16 h.
On the next day, 10:l of lysis buffer each were added to the cells and the cells were incubated for additional 2 h. Subsequently, 5:l of the agent were transferred into a second microwell plate and combined with 50:l of substrate buffer. After a 30 min incubation, the reaction was terminated by 50:l of stop solution and the absorption of the formed MTT color complex was measured in a microwell plate reader.

| Sequence | Cytotoxicity (0.3:M test peptide) | Cytotoxicity (3:M test peptide) | Cytotoxicity (30:M test peptide) |
| --- | --- | --- | --- |
| APTSSSTKKTQLQLEHFLLDFQMILNGINN [Sequence 2, APTSSSTKKT QLQLEHFLLD FQMILNGINN] | 30% | 80% | 10% |
| APTSSSTKKTQLQLEHFLMKFQMILNGINN [Sequence 3, APTSSSTKKT QLQLEHFLMK FQMILNGINN] | 0% | 20% | 0% |
| APTSSSTKKTQLQLEHLLLKLQMILNGINN [Sequence 1, APTSSSTKKT QLQLEHLLLK LQMILNGINN] | 30% | 30% | 30% |
